Data on 4 molecules can be found in paper PMC2364086, “Metabolism and growth inhibition of four retinoids in head and neck squamous normal and malignant cells” (British Journal of Cancer, 2001).

One series relates to UM-SCC-35. The series can be described thus: Retinoid metabolism / turnover rate, HPLC. The following applies: for Metabolites Pellet: UM-SCC-35 cell pellet. The source says: (§1) Retinoic acid is an active metabolite of retinol (ROL, vitamin A) that plays an important role in growth and differentiation of a variety of cell types (Gudas et al, 1994). […] This is a whitish and reddish plaque in the epithe- lial lining in the oral cavity that have a relatively high risk to become malignant. […] One impor- tant route of ATRA metabolism consists of hydroxylation at posi- tion 4 of the cyclohexenyl ring to form 4-hydroxy-RA, which is readily oxidized to 4-oxo-RA. Other metabolic pathways of ATRA include isomerization, decarboxylation and glucuronidation processes (Rockley et al, 1980; Roberts et al, 1980; Sass et al, 1994). In vitro, 4-hydroxylation of ATRA is mediated by a cytochrome P450 (CYP)-dependent mono-oxogenase system that requires NAPDH and oxygen (Roberts et al, 1980). The present study was undertaken to investigate to what extent a panel of retinoids, including 13cRA, is able to inhibit growth of HNSCC cells and cultures of normal oral keratinocytes (OKC). […] After binding of retinoids to retinoic acid receptors (RARs and RXRs) dimers are formed that are able to regulate the expression of genes involved in growth and differentiation. We compared the metabolism and level of growth inhibition of 13cRA with that of ATRA, 9cRA and retinol in four HNSCC cell lines and normal oral keratinocyte cultures (OKC).

The test system of another series is CYP26. More on the design: method as in Sonneveld et al, 1998. The following applies: ref Sonneveld et al, 1998; cited from earlier work.
The subject of series [1] is normal oral keratinocyte cultures (OKC). The series can be described thus: Retinoid metabolism / turnover rate, HPLC. Details: Metabolites Medium: dose or concentration left out as unconfirmed.
From the text: as §1

The test system of the next series is UM-SCC-22A. Briefly: Retinoid metabolism / turnover rate, HPLC. More on the design: Metabolites Medium: dose or concentration left out as unconfirmed. As to conditions: for Metabolism (turnover rate) Mean: 24 h; for Metabolites Medium: UM-SCC-22A medium.
From the text: as §1

For a further series, the system named is UM-SCC-14C. Briefly: Retinoid metabolism / turnover rate, HPLC. More on the design: Metabolites Medium: dose or concentration left out as unconfirmed. The following applies: for Metabolism (turnover rate) Mean: 24 h; for Metabolites Medium: UM-SCC-14C medium.
From the text: as §1

Another series concerns UM-SCC-35R. Briefly: Retinoid metabolism / turnover rate, HPLC. The following applies: for Metabolism (turnover rate) Mean: 24 h. More on the design: Metabolites Medium: dose or concentration left out as unconfirmed.
From the text: as §1

For another series, the system named is oral leukoplakia. The following applies: ref Koch, 1978; cited from earlier work.
[2] abbreviates: 72 h exposure, 1 mM retinoid, HPLC.
[3] abbreviates: OKC, exposed, decrease in medium and cells between 4 and 24 h.

For `CC1=C(/C=C/C(C)=C/C=C/C(C)=C\C(=O)O)C(C)(C)CCC1` [13cRA, 13-cis-retinoic acid], the “Metabolism (turnover rate) Mean” value is on record as 949.5 pmol per mg protein per hour in the series with UM-SCC-35 (human, 24 h, 1 µM); 38.8 pmol per mg protein per hour in series [1] (human, 24 h, 1 µM); 154.1 pmol per mg protein per hour in the series with UM-SCC-22A (human, 1 µM); 78.7 pmol per mg protein per hour in the series with UM-SCC-14C (human, 1 µM); 6.9 pmol per mg protein per hour in the series on UM-SCC-35R (human, 1 µM). The “Metabolism by CYP26” value with CYP26 was “can not metabolize”. Also, the “Isomerization to other RA isomers” value in series [1] (human, 1 µM) is “up to 10%”; with UM-SCC-22A (human, 1 µM), “up to 10%”; with UM-SCC-14C (human, 1 µM), “up to 10%”. The “Metabolites Pellet” value in series [1] (human, 72 h, 1 µM) was “d2”; with UM-SCC-22A (human, 72 h, 1 µM), “d2”; in the series with UM-SCC-14C (human, 72 h, 1 µM), “d2”; in the series with UM-SCC-35R (human, 72 h, 1 µM) it was “b,d2”.

For `CC1=C(/C=C/C(C)=C/C=C/C(C)=C/CO)C(C)(C)CCC1` [ROL, retinol], the “Formation of other retinoids after exposure” value in the series on UM-SCC-35 (UM-SCC-35) and with UM-SCC-35R (UM-SCC-35R) was “no or very small amounts of other retinoids” each time. Besides, the “Metabolites Pellet” value in the series on UM-SCC-35 (setting [2]) is “c1”; in series [1] (OKC cell pellet, 72 h exposure, HPLC), “d1”; with UM-SCC-22A (UM-SCC-22A cell pellet, 72 h exposure, HPLC) it was “d1”; with UM-SCC-14C (UM-SCC-14C cell pellet, 72 h exposure, HPLC), “d1”. Also, the “Metabolites Medium” value in series [1] (OKC medium, 72 h exposure, HPLC) is “d1”; in the series with UM-SCC-22A (72 h exposure, HPLC), “d1”; with UM-SCC-14C (72 h exposure, HPLC), “d1”. For the same molecule, the “Metabolism (turnover rate) Mean” value in series [1] (setting [3]) is given as 98.7 pmol per mg protein per hour. The “Formation of ATRA after exposure” value with UM-SCC-14C (UM-SCC-14C) is “relatively high formation of ATRA”.

Take `CC1=C(/C=C/C(C)=C/C=C/C(C)=C/C(=O)O)C(C)(C)CCC1` [ATRA, all-trans-retinoic acid]: in the series with UM-SCC-35 (human, 24 h, 1 µM), the Major metabolite was 4-OH-RA. For the same molecule, the “Metabolism (turnover rate) Mean” value in the series on UM-SCC-35 (human, 24 h, 1 µM) was 1,016.0 pmol per mg protein per hour; in series [1] (human, 24 h, 1 µM), 14.8 pmol per mg protein per hour; with UM-SCC-22A (human, 1 µM) it was 104.8 pmol per mg protein per hour; in the series on UM-SCC-14C (human, 1 µM), 13.3 pmol per mg protein per hour; in the series with UM-SCC-35R (human, 1 µM), 52.7 pmol per mg protein per hour. For the same molecule, the “Proportion of leukoplakia patients in whom active” value in the series with oral leukoplakia is on record as 59%. Moreover, the “Metabolism by CYP26” value in the series with CYP26 is given as “highly substrate (ATRA) specific”. Besides, the “Isomerization to other RA isomers” value in series [1] (human, 1 µM) is “up to 10%”; with UM-SCC-22A (human, 1 µM) it was “up to 10%”; in the series on UM-SCC-14C (human, 1 µM), “up to 10%”.

For the molecule `CC1=C(/C=C/C(C)=C\C=C\C(C)=C\C(=O)O)C(C)(C)CCC1` [9cRA, 9-cis-RA], the “Metabolites Pellet” value was “b (between 10 and 15 min)” in the series on UM-SCC-35 (setting [2]); “b (between 10 and 15 min)” with UM-SCC-35R (UM-SCC-35R cell pellet, 72 h exposure, HPLC). The “Metabolites Medium” value is on record as “a,b,c” in the series with UM-SCC-35 (UM-SCC-35 medium, 72 h exposure, 1 mM retinoid, HPLC); “a,b” in the series with UM-SCC-22A (72 h exposure, HPLC); “a,b” with UM-SCC-14C (72 h exposure, HPLC); “a,b” in the series on UM-SCC-35R (UM-SCC-35R medium, 72 h exposure, HPLC). Moreover, in the series on CYP26, the “Metabolism by CYP26” value was “can not metabolize”. The “Isomerization to other RA isomers” value in series [1] (OKC, ATRA to 13cRA, 13cRA to ATRA, 9cRA to ATRA and 13cRA) was “up to 5%”; in the series with UM-SCC-22A (UM-SCC-22A, ATRA to 13cRA, 13cRA to ATRA, 9cRA to ATRA and 13cRA) it was “up to 5%”; in the series on UM-SCC-14C (UM-SCC-14C, ATRA to 13cRA, 13cRA to ATRA, 9cRA to ATRA and 13cRA), “up to 5%”. Also, in series [1] (setting [3]), the “Metabolism (turnover rate) Mean” value is listed as 12.0 pmol per mg protein per hour.
